Data on 2 compounds can be found in US20260183297A1, “SELECTION OF PATIENTS FOR THE TREATMENT OF FADS1-MEDIATED DISEASES OR DISORDERS USING FADS-1 INHIBITORS” (AMGEN INC., priority 2022, published 2026).

Usually inhibition stands for the change of the read-out against control, counted positive when it falls. Read a low inhibition as a weak effect.

The target of this test is T1, FADS1 (Mus musculus, UniProt Q920L1).
T1 construct: Liver from ^13C5-DGLA dosed DIO mice was collected for pharmacodynamic (PD) analysis; from tissue; host or cells: living DIO C57Bl/6 mice; 13C5-DGLA to 13C5-AA conversion read in liver (A4) or blood plasma (A5)
T1 sequence (Q920L1 1-447): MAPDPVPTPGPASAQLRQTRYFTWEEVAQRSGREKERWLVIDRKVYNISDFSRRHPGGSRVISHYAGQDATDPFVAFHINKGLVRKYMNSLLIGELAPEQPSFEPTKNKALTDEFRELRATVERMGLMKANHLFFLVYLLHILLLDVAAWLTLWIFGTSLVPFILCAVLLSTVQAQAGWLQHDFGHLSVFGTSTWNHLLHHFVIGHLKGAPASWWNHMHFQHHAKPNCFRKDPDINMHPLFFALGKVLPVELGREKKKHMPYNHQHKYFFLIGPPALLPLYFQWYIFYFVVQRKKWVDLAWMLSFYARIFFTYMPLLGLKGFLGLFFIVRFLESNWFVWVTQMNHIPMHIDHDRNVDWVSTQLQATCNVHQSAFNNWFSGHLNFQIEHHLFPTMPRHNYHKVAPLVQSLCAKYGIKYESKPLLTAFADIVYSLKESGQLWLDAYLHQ
Kind of test: In vivo FADS1 activity measurement using blood plasma (13C5-DGLA to 13C5-AA conversion). The conditions noted are these: DIO mice, 24 hours after dosing. As for the experimental part:
FADS1 activity in the presence of Compounds B-E was also measured using blood plasma (in addition to using the liver). The above procedures were perforned to measure the in vivo activity of FADS1 using the liver. The following general procedures were used to measure FADS1 activity using blood plasma. Diet-induced obese (DIO) mice that were on 12 weeks of high fat diet were used to determine the pharmacokinetic (PK) and pharmacodynamic (PD) properties of test compounds. To determine the target coverage at 24 hours after dosing with a test compound (e.g., Compounds B-E, shown below), mice were IP dosed with 0.1 ml solution of ^13C5-DGLA (2 mM in 18.42 mM Na2CO3 buffer). Necropsy were performed at 30 minutes post ^13C5-DGLA dosing. EDTA Plasma was collected for PK and PD analysis.
For PD analysis, 50 μl of plasma or standards (pooled untreated mouse plasma with ^13C5-DGLA and ^13C5-AA added at concentration of 4.57 nM to 10 uM) were mixed with 10 μl of 90% methanol and 10 μl of 50 μg/mL of ALA-D14 as an internal standard (100 μM alpha-linolenic acid-d14 (ALA-d14, Cayman Chemical)) in a 96 well plate. 490 μl of chloroform:methanol (2:1) were added to each well. Plates were plated on a shaker for 5 min prior to adding 66.5 μl water. The plates were shaken for another 5 minutes, followed by centrifugation at 2000 RPM for 5 minutes. The bottom organic layer was transferred to a clean 96 well plate. 333 ul of chloroform:methanol (2:1) were added to the to the remaining liquid phase in the original plate. After 5 min of shaking, the plate was centrifuged at 2000 RPM for 5 minutes. The bottom layer was collected and combined with the first bottom layer. The combined layers were evaporated to dryness under a constant stream of nitrogen gas. After the plate has been dried, 100 μl of 2N NaOH was added to the mixture for subsequent saponification at 65° C. for 1 hour. The samples were then cooled to room temperature and the mixture was then acidified with 50 μl of formic acid followed by two consecutive chloroform:methanol (2:1) extractions. 500 μl of Chloroform:methanol (2:1) was added and the mixture thoroughly mixed by shaking. The plate was then centrifuged at 2,000 rpm for 5 min. The bottom chloroform phase was transferred to a new 2 mL 96 well plate and the remaining aqueous layer was extracted with another 250 μl of chloroform:methanol (2:1). The organic extracts were combined, and the solvent was evaporated to dryness by placing the plate under nitrogen. Extracts were then dissolved in 200 μl of acetonitrile/methanol (1:1). The plate was placed on a shaker for 30 minutes to ensure thorough mixing and dissolution of the extracted fatty acids. The plate was then centrifuged at 2000 RPM for 5 minutes. 80 μl of the samples were transferred to a new 96 well polypropylene plate for analysis on a LC-MS/MS for the following analytes: ^13C5-DGLA, ^13C5-AA, with ALA-d14 as the internal standard. Briefly describing the LC-MS/MS method: 20 μl of sample was injected onto a Poroshell 120 EC-C18 3.0×50 mm, 1.9 μm id column. Mobile phases were 80% acetonitrile containing 5 mM ammonium acetate for mobile phase A and 99.5% acetonitrile containing 5 mM ammonium acetate for mobile phase B. The LC gradient was a 3 min long method at a flow rate of 0.4 mL/minute consisting of 45% B at 0 to 0.5 min, followed by a 45% B to 100% B from 0.5 to 2.0 min; the system was then maintained at 100% B from 2.0 min to 2.5 min and returned to 45% B at 2.6 min and maintained until end of the method. The analyte peak areas were quantified by using the SCIEX Analyst software. To determine the degree of FADS1 inhibition, the in vivo FADS1 activity, POC, percent of inhibition, and in vivo IC50 values are calculated as described above for liver FADS1 activity measurement.

Where [1] appears, read: mouse, single oral dose 10 mg/kg.
Where [2] appears, read: mouse, single oral dose 30 mg/kg.

In the case of `COc1ccn2c(=O)c(-c3cnn(CC(F)(F)C(F)(F)F)c3)c(C(F)(F)F)nc2n1` [Compound B], the “Plasma Avg % Conversion” value by setting is: (single oral dose 10 mg/kg) 2.9%; (single oral dose 30 mg/kg) 2.2%; (single oral dose 50 mg/kg) 1.9%. Also, under setting [1], at 10 mg/kg the inhibition was 95.2%. This compound also displayed an inhibition at 30 mg/kg under setting [2] of 96.3%. In addition, the inhibition at 50 mg/kg (mouse, single oral dose 50 mg/kg) stood at 96.9%.

Turning to `N#Cc1ccn2c(=O)c(-c3cnn(CC(F)(F)C(F)(F)F)c3)c(C(F)(F)F)nc2c1` [Compound C], the “Plasma Avg % Conversion” value worked out at 10.1% (single oral dose 3 mg/kg), 4.3% (single oral dose 10 mg/kg) and 1.7% (single oral dose 30 mg/kg). For the same compound, under “mouse, single oral dose 3 mg/kg”, testing at 3 mg/kg gave an inhibition of 83.3%. Under setting [1], this compound displayed an inhibition at 10 mg/kg of 92.8%. Further, the inhibition at 30 mg/kg under setting [2] was found to be 97.1%.
